Reference: US11505543B2, “4-oxo-3,4-dihydroquinazoline compounds as inhibitors of human immunodeficiency virus replication” (VIIV HEALTHCARE UK (NO.5) LIMITED, priority 2018, dated 2022)

Columns and labels:
[1] = tested on: recombinant NL4-3 virus (nef section replaced with Renilla luciferase gene) in MT-2 cells; assay: HIV cell culture assay (antiviral activity, luciferase readout); type: cell-based; conditions: Renilla, NL43, MT-2 cells infected for 4-5 days with recombinant NL4-3 Renilla luciferase virus, serial dilutions of compound
Method: HIV cell culture assay—MT-2 cells, 293T cells and the proviral DNA clone of NL4-3 virus were obtained from the NIH AIDS Research and Reference Reagent Program. MT-2 cells were propagated in RPMI 1640 media supplemented with 10% heat inactivated fetal bovine serum (FBS), 100 μg/ml penicillin G and up to 100 units/mL streptomycin. The 293T cells were propagated in DMEM media supplemented with 10% heat inactivated FBS, 100 μg/mL penicillin G and 100 μg/mL streptomycin. A recombinant NL4-3 proviral clone, in which a section of the nef gene was replaced with the Renilla luciferase gene, was used to make the reference virus used in these studies. The recombinant virus was prepared through transfection of the recombinant NL4-3 proviral clone into 293T cells using Transit-293 Transfection Reagent from Mirus Bio LLC (Madison, Wis.). Supernatent was harvested after 2-3 days and the amount of virus present was titered in MT-2 cells using luciferase enzyme activity as a marker by measuring luciferase enzyme activity. Luciferase was quantitated using the EnduRen Live Cell Substrate from Promega (Madison, Wis.). Antiviral activities of compounds toward the recombinant virus were quantified by measuring luciferase activity in MT-2 cells infected for 4-5 days with the recombinant virus in the presence of serial dilutions of the compound.
The 50% effective concentration (EC50) was calculated by using the exponential form of the median effect equation where (Fa)=1/[1+(ED50/drug conc.)^m] (Johnson VA, Byington RT. Infectivity Assay. In Techniques in HIV Research. ed. Aldovini A, Walker BD. 71-76. New York: Stockton Press. 1990). Curve fitting and analysis were performed with ActivityBase XE Runner software version 9.1.0.4 using model 203 (ID Business Solutions, LTD, Guildford, UK).

[2] = Compound cytotoxicity, XTT-based colorimetric assay; type: cell-based; conditions: human, uninfected MT2 cells, day 4, XTT
Method: Compound cytotoxicity and the corresponding CC50 values were determined using the same protocol as described in the antiviral assay except that uninfected cells were used. Cytotoxicity was assessed on day 4 in uninfected MT2 cells by using a XTT (2,3-bis[2-Methoxy-4-nitro-5-sulfophenyl]-2H-tetrazolium-5-carboxyanilide inner salt)-based colorimetric assay (Sigma-Aldrich, St Louis, Mo.).

SMILES	EC50 [1]	CC50 at 4 day [2]
O=C(Cn1ccc(C2CC2)n1)N[C@@H](Cc1cc(F)cc(F)c1)c1nc2cc(-c3ccccc3F)ccc2c(=O)n1-c1ccc(Cl)c2c(NS(=O)(=O)C3CC3)nn(CC(F)F)c12 (atropisomer, axis not shown) [Example 134, (S)-N-(1-(3-(4-chloro-3-(cyclopropanesulfonamido)-1-(2,2-difluoroethyl)-1H-indazol-7-yl)-7-(2-fluorophenyl)-4-oxo-3,4-dihydroquinazolin-2-yl)-2-(3,5-difluorophenyl)ethyl)-2-(3-cyclopropyl-1H-pyrazol-1-yl)acetamide]	10 nM	> 1000 nM
CC(C)c1ccn(CC(=O)N[C@@H](Cc2cc(F)cc(F)c2)c2nc3cc(-c4ccccc4F)ccc3c(=O)n2-c2ccc(Cl)c3c(NS(=O)(=O)C4CC4)nn(CC(F)F)c23)n1 (atropisomer, axis not shown) [Example 135, (S)-N-(1-(3-(4-chloro-3-(cyclopropanesulfonamido)-1-(2,2-difluoroethyl)-1H-indazol-7-yl)-7-(2-fluorophenyl)-4-oxo-3,4-dihydroquinazolin-2-yl)-2-(3,5-difluorophenyl)ethyl)-2-(3-isopropyl-1H-pyrazol-1-yl)acetamide]	13 nM	> 1000 nM
O=C(Cn1nc(C(F)F)cc1C(F)F)N[C@@H](Cc1cc(F)cc(F)c1)c1nc2cc(-c3ccccc3F)ccc2c(=O)n1-c1ccc(Cl)c2c(NS(=O)(=O)C3CC3)nn(CC(F)F)c12 (atropisomer, axis not shown) [Example 136, (S)-2-(3,5-bis(difluoromethyl)-1H-pyrazol-1-yl)-N-(1-(3-(4-chloro-3-(cyclopropanesulfonamido)-1-(2,2-difluoroethyl)-1H-indazol-7-yl)-7-(2-fluorophenyl)-4-oxo-3,4-dihydroquinazolin-2-yl)-2-(3,5-difluorophenyl)ethyl)acetamide]	9.5 nM	> 1000 nM
Cn1nc(NS(C)(=O)=O)c2c(Cl)ccc(-n3c([C@H](Cc4cc(F)cc(F)c4)NC(=O)Cn4nc(C(F)F)c5c4C(F)(F)[C@@H]4C[C@H]54)nc4cc(-c5ccccc5-c5ccccc5)ccc4c3=O)c21 (atropisomer, axis not shown; (aR)) [Example 9, N-((S)-1-(7-([1,1′-biphenyl]-2-yl)-3-(4-chloro-1-methyl-3-(methylsulfonamido)-1H-indazol-7-yl)-4-oxo-3,4-dihydroquinazolin-2-yl)-2-(3,5-difluorophenyl)ethyl)-2-((3bS,4aR)-3-(difluoromethyl)-5,5-difluoro-3b,4,4a,5-tetrahydro-1H-cyclopropa[3,4]cyclopenta[1,2-c]pyrazol-1-yl)acetamide]	4.6 nM	> 1000 nM
Cn1nc(NS(C)(=O)=O)c2c(Cl)ccc(-n3c([C@H](Cc4cc(F)cc(F)c4)NC(=O)Cn4nc(C(F)F)c5c4C(F)(F)[C@@H]4C[C@H]54)nc4cc(-c5ccc(Oc6ccccc6)cc5)ccc4c3=O)c21 (atropisomer, axis not shown; (aR)) [Example 14, N-((S)-1-(3-(4-chloro-1-methyl-3-(methylsulfonamido)-1H-indazol-7-yl)-4-oxo-7-(4-phenoxyphenyl)-3,4-dihydroquinazolin-2-yl)-2-(3,5-difluorophenyl)ethyl)-2-((3bS,4aR)-3-(difluoromethyl)-5,5-difluoro-3b,4,4a,5-tetrahydro-1H-cyclopropa[3,4]cyclopenta[1,2-c]pyrazol-1-yl)acetamide]	9.8 nM	> 1000 nM
Cn1nc(NS(C)(=O)=O)c2c(Cl)ccc(-n3c([C@H](Cc4cc(F)cc(F)c4)NC(=O)Cn4nc(C(F)F)c5c4C(F)(F)[C@@H]4C[C@H]54)nc4cc(-c5cccc(C(=O)O)c5)ccc4c3=O)c21 (atropisomer, axis not shown; (aR)) [Example 17, 3-(3-(4-chloro-1-methyl-3-(methylsulfonamido)-1H-indazol-7-yl)-2-((S)-1-(2-((3bS,4aR)-3-(difluoromethyl)-5,5-difluoro-3b,4,4a,5-tetrahydro-1H-cyclopropa[3,4]cyclopenta[1,2-c]pyrazol-1-yl)acetamido)-2-(3,5-difluorophenyl)ethyl)-4-oxo-3,4-dihydroquinazolin-7-yl)benzoic acid]	9.7 nM	> 1000 nM
Cn1nc(NS(C)(=O)=O)c2c(Cl)ccc(-n3c([C@H](Cc4cc(F)cc(F)c4)NC(=O)Cn4nc(C(F)F)c5c4C(F)(F)[C@@H]4C[C@H]54)nc4cc(-c5ccc(C(C)(C)O)cc5)ccc4c3=O)c21 (atropisomer, axis not shown; (aR)) [Example 18, N-((S)-1-(3-(4-chloro-1-methyl-3-(methylsulfonamido)-1H-indazol-7-yl)-7-(4-(2-hydroxypropan-2-yl)phenyl)-4-oxo-3,4-dihydroquinazolin-2-yl)-2-(3,5-difluorophenyl)ethyl)-2-((3bS,4aR)-3-(difluoromethyl)-5,5-difluoro-3b,4,4a,5-tetrahydro-1H-cyclopropa[3,4]cyclopenta[1,2-c]pyrazol-1-yl)acetamide]	0.34 nM	> 1000 nM
Cn1nc(NS(C)(=O)=O)c2c(Cl)ccc(-n3c([C@H](Cc4cc(F)cc(F)c4)NC(=O)Cn4nc(C(F)F)c5c4C(F)(F)[C@@H]4C[C@H]54)nc4cc(-c5cnc(F)c(F)c5)ccc4c3=O)c21 (atropisomer, axis not shown; (aR)) [Example 25, N-((S)-1-(3-(4-chloro-1-methyl-3-(methylsulfonamido)-1H-indazol-7-yl)-7-(5,6-difluoropyridin-3-yl)-4-oxo-3,4-dihydroquinazolin-2-yl)-2-(3,5-difluorophenyl)ethyl)-2-((3bS,4aR)-3-(difluoromethyl)-5,5-difluoro-3b,4,4a,5-tetrahydro-1H-cyclopropa[3,4]cyclopenta[1,2-c]pyrazol-1-yl)acetamide]	0.25 nM	> 1000 nM
Cc1cccc(C)c1-c1ccc2c(=O)n(-c3ccc(Cl)c4c(NS(C)(=O)=O)nn(C)c34)c([C@H](Cc3cc(F)cc(F)c3)NC(=O)Cn3nc(C(F)F)c4c3C(F)(F)[C@@H]3C[C@H]43)nc2c1 (atropisomer, axis not shown; (aR)) [Example 26, N-((S)-1-(3-(4-chloro-1-methyl-3-(methylsulfonamido)-1H-indazol-7-yl)-7-(2,6-dimethylphenyl)-4-oxo-3,4-dihydroquinazolin-2-yl)-2-(3,5-difluorophenyl)ethyl)-2-((3bS,4aR)-3-(difluoromethyl)-5,5-difluoro-3b,4,4a,5-tetrahydro-1H-cyclopropa[3,4]cyclopenta[1,2-c]pyrazol-1-yl)acetamide]	0.72 nM	> 1000 nM
Cn1nc(NS(C)(=O)=O)c2c(Cl)ccc(-n3c([C@H](Cc4cc(F)cc(F)c4)NC(=O)Cn4nc(C(F)F)c5c4C(F)(F)[C@@H]4C[C@H]54)nc4cc(-c5ccc6c(c5)CCCO6)ccc4c3=O)c21 (atropisomer, axis not shown; (aR)) [Example 28, N-((S)-1-(3-(4-chloro-1-methyl-3-(methylsulfonamido)-1H-indazol-7-yl)-7-(chroman-6-yl)-4-oxo-3,4-dihydroquinazolin-2-yl)-2-(3,5-difluorophenyl)ethyl)-2-((3bS,4aR)-3-(difluoromethyl)-5,5-difluoro-3b,4,4a,5-tetrahydro-1H-cyclopropa[3,4]cyclopenta[1,2-c]pyrazol-1-yl)acetamide]	3.2 nM	> 1000 nM
Cn1nc(NS(C)(=O)=O)c2c(Cl)ccc(-n3c([C@H](Cc4cc(F)cc(F)c4)NC(=O)Cn4nc(C(F)F)c5c4C(F)(F)[C@@H]4C[C@H]54)nc4cc(-c5cccc(F)c5)ccc4c3=O)c21 (atropisomer, axis not shown; (aR)) [Example 30, N-((S)-1-(3-(4-chloro-1-methyl-3-(methylsulfonamido)-1H-indazol-7-yl)-7-(3-fluorophenyl)-4-oxo-3,4-dihydroquinazolin-2-yl)-2-(3,5-difluorophenyl)ethyl)-2-((3bS,4aR)-3-(difluoromethyl)-5,5-difluoro-3b,4,4a,5-tetrahydro-1H-cyclopropa[3,4]cyclopenta[1,2-c]pyrazol-1-yl)acetamide]	0.88 nM	> 1000 nM
Cn1nc(NS(C)(=O)=O)c2c(Cl)ccc(-n3c([C@H](Cc4cc(F)cc(F)c4)NC(=O)Cn4nc(C(F)F)c5c4C(F)(F)[C@@H]4C[C@H]54)nc4cc(-c5cc(F)c(F)cc5F)ccc4c3=O)c21 [Example 171, N-((S)-1-(3-(4-chloro-1-methyl-3-(methylsulfonamido)-1H-indazol-7-yl)-4-oxo-7-(2,4,5-trifluorophenyl)-3,4-dihydroquinazolin-2-yl)-2-(3,5-difluorophenyl)ethyl)-2-((3bS,4aR)-3-(difluoromethyl)-5,5-difluoro-3b,4,4a,5-tetrahydro-1H-cyclopropa[3,4]cyclopenta[1,2-c]pyrazol-1-yl)acetamide]	0.48 nM	–
